Measurements from paper PMC6100075, “Correlation between the Potency of Flavonoids on Mushroom Tyrosinase Inhibitory Activity and Melanin Synthesis in Melanocytes” (Molecules : A Journal of Synthetic Chemistry and Natural …, 2018).
Where two headings read alike, the source gives them in different places.

Legend:
[1] = Cell viability assay (PrestoBlue resazurin); assay type: cell-based, Mus musculus (mouse); conditions: mouse;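 also: mouse B16-F10 melanoma cells exposed to test samples for 72 h, with viability read as fluorescence of resorufin formed when living cells reduce PrestoBlue resazurin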
murine tyrosinase = biological target: T1, murine tyrosinase (Mus musculus, UniProt P11344); assay: Murine tyrosinase inhibitory assay (o-diphenolase activity, crude enzyme from B16-F10 melanoma cells); assay type: biochemical;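 also: crude tyrosinase taken from lysed, dialyzed B16-F10 cell extract, with the inhibition reaction incubated for 2 h at 37 °C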
T1 construct: The cells were lysed by vortex and incubated at 4 °C for 1 h to solubilize the tyrosinase enzyme; endogenous in cells; host or cells: B16-F10 melanoma cells (Triton X-100 lysate, dialyzed)
T1 sequence (P11344 19-533): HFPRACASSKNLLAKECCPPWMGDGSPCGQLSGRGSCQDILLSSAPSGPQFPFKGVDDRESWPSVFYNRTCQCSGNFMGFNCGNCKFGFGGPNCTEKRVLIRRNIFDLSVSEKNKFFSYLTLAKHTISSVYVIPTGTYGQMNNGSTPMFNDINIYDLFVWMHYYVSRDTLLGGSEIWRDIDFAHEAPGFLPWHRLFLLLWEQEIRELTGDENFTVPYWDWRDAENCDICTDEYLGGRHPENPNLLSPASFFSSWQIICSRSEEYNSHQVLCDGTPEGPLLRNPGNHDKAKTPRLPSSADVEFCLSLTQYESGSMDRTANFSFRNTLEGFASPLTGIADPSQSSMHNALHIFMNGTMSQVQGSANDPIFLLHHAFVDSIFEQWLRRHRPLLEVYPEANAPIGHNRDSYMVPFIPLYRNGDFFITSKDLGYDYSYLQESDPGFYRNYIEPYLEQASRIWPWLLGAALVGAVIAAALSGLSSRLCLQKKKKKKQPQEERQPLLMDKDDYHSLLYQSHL

mushroom tyrosinase = mushroom tyrosinase (Agaricus bisporus, UniProt C7FF04); assay: Mushroom tyrosinase inhibitory assay (o-diphenolase activity, L-DOPA as substrate); assay type: biochemical; conditions: for inhibition at 200 µM: read-out: Mushroom Tyrosinase Inhibition % Inhibition (at 200 μM); for inhibition at 300 µM: read-out: Mushroom Tyrosinase Inhibition % Inhibition (at 300 μM); for inhibitory activity on mushroom tyrosinase (in words): o-diphenolase; for behaviour as substrate of mushroom tyrosinase (in words): pre-incubation with enzyme in absence of L-DOPA, coloured product at 475 nm;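 as to all read-outs here: enzyme and test sample preincubated 10 min at 25 °C in pH 6.8 phosphate buffer, 50% DMSO vehicle as control, enzyme-free mixture as blank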
mushroom tyrosinase, sequence (G1K3P4 entry or part of it): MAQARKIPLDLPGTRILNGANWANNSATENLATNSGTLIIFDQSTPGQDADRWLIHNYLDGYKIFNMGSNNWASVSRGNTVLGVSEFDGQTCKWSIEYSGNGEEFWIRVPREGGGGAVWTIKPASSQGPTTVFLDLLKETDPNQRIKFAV
mushroom tyrosinase, sequence (C7FF04 2-392): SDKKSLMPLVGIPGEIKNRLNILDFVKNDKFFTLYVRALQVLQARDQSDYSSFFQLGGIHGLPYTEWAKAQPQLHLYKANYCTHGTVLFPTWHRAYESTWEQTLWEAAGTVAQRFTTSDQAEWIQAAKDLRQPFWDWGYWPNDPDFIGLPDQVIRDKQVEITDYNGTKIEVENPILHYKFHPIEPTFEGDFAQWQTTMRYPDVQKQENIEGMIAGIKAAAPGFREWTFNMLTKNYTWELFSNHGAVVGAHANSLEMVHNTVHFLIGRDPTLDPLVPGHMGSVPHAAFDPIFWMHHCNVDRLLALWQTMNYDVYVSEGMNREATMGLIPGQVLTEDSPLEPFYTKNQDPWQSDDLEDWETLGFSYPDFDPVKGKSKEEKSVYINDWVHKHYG

B16-F10 melanoma cells = assay: Total melanin content assay; assay type: cell-based, Mus musculus (mouse); conditions: for activity at 15 µM / activity at 30 µM: read-out: % Melanin Content
Description: Mus musculus (mouse) melanoma cell line, B16-F10 (ATCC® Number: CRL-6475™, Manassas, VA, USA), was cultured in complete Dulbecco′s Modified Eagle′s Medium (DMEM, phenol red-free medium) containing 10% fetal bovine serum, 25 mM glucose, 4 mM L-glutamine, 1 mM sodium pyruvate, 10 μg/mL penicillin, and 10 μg/mL streptomycin, at 37 °C, with 5% carbon dioxide (CO2) in a humidified atmosphere.
The total melanin content, produced both extracellularly and intracellularly, was determined as follows: B16-F10 cells were seeded onto a 24-well plate at a concentration of 50,000 cells/0.5 mL/well and were incubated for 24 h, followed by treatment with either the test compounds or the control (0.5% DMSO), and then incubated for 72 h. For extraction, the total produced melanin and 0.5 mL of 2 N NaOH containing 20% DMSO were added directly to the cell culture medium, mixed by pipetting and then incubated at room temperature for 1 h. The lysed cell extract was centrifuged at 13,000× g for 5 min. Finally, the supernatant was transferred to a 96-well plate and the relative melanin content was detected at 405 nm using a micro plate reader. Kojic acid and oxyresveratrol were used as positive controls.

[2] = tested on: human melanoma cells (MMV II); parameters: method as in PMID 25248426; conditions: cited from earlier work
[3] = B16-F10 melanoma cells, 15 μM, 72 h, relative to control, read-out: % Cell Viability
[4] = B16-F10 melanoma cells, 30 μM, 72 h, relative to control, read-out: % Cell Viability
[5] = 200 μM, L-DOPA substrate, read-out: Murine Tyrosinase Inhibition, % (at 200 μM), symbol
[6] = Mus musculus, B16-F10, 15 μM, 72 h, relative to control
[7] = Mus musculus, B16-F10, 30 μM, 72 h, relative to control
[8] = 200 μM, L-DOPA substrate, read-out: Murine Tyrosinase Inhibition, % (at 200 μM)

Structure (SMILES) | viability at 72 h, 15 µM [1, 3] [%] | viability at 72 h, 30 µM [1, 4] [%] | inhibition at 200 µM (murine tyrosinase; [5]) [%] | activity at 15 µM (B16-F10 melanoma cells; [6]) [%] | activity at 30 µM (B16-F10 melanoma cells; [7]) [%] | other results
COc1cc(OC)c(C2COc3cc(O)cc(O)c3C2=O)cc1O (stereo not shown) [Compound 18, Dalparvin A] | 105 ± 4.8 | 100 ± 7.1 | < 0 | 132 ± 4.4 | 184 ± 10.6 | inhibition at 500 µM (mushroom tyrosinase; L-DOPA substrate): 0%
O=c1c(O)c(-c2ccc(O)c(O)c2)oc2cc(O)ccc12 [fisetin] |  |  |  |  |  | effect on melanogenesis (in words) [2]: melanogenesis-promoting actions
COc1ccc([C@@H]2COc3cc(O)ccc3C2)c(O)c1 [Compound 19, (3R)-Vestitol] | 142 ± 3 | 120 ± 4.1 |  | 186.1 ± 1.6 | 232 ± 9.3 | inhibition at 200 µM (murine tyrosinase; [8]): 12.4 ± 3.3%; inhibition at 200 µM (mushroom tyrosinase; 200 μM, L-DOPA substrate): 35.6 ± 2.2%
COc1ccc(-c2coc3cc(O)cc(O)c3c2=O)c(OC)c1O [Compound 7, Khrinone C] | 93.3 ± 2 | 93.4 ± 2 | < 0 | 107.6 ± 0.8 | 154 ± 9.9 | inhibition at 300 µM (mushroom tyrosinase; L-DOPA substrate): 2%; inhibitory activity on mushroom tyrosinase (in words) (mushroom tyrosinase; L-DOPA substrate): did not show inhibitory activity
COc1c(O)cc2occ(-c3ccc(O)cc3)c(=O)c2c1O [Compound 8, Tectorigenin] | 130 ± 3.4 | 119 ± 1.3 |  | 128 ± 2.8 | 152 ± 4.7 | inhibition at 200 µM (murine tyrosinase; [8]): 10.2 ± 2.9%; behaviour as substrate of mushroom tyrosinase (in words) (mushroom tyrosinase): chromogenic substrate analogs
COc1ccc(-c2coc3cc(O)cc(O)c3c2=O)cc1 [Compound 3, Biochanin A] | 103 ± 4.5 | 102 ± 4.8 | < 0 | 165 ± 5.9 | 168 ± 5.1 | inhibition at 200 µM (mushroom tyrosinase; 200 μM, L-DOPA substrate): 9.2 ± 0.4%; inhibitory activity on mushroom tyrosinase (in words) (mushroom tyrosinase; L-DOPA substrate): did not show inhibitory activity
O=C1C[C@@H](c2ccc(O)cc2)Oc2cc(O)cc(O)c21 [Compound 25, (2S)-Naringenin] | 94.3 ± 2 | 98.1 ± 0.5 | < 0 | 132 ± 14.5 | 152 ± 3.8 | behaviour as substrate of mushroom tyrosinase (in words) (mushroom tyrosinase): chromogenic substrate analogs; effect on melanin content (in words, Figure 1) (B16-F10 melanoma cells; 30 μM): increased the melanin content
COc1cc2c(cc1C1COc3cc(O)ccc3C1=O)OCO2 (stereo not shown) [Compound 11, Onogenin] | 100 ± 5 | 92 ± 2 | < 0 | 134 ± 4.6 | 170 ± 15.4 | inhibition at 300 µM (mushroom tyrosinase; L-DOPA substrate): 0%
COc1ccc([C@@H]2COc3cc(O)ccc3C2)c(OC)c1O [Compound 20, (3R)(+)-Mucronulatol] | 104 ± 6.9 | 102 ± 2.7 |  | 179 ± 15.9 | 264 ± 8.2 | inhibition at 200 µM (murine tyrosinase; [8]): 12.8 ± 2.1%; inhibition at 200 µM (mushroom tyrosinase; 200 μM, L-DOPA substrate): 48.3 ± 1.6%
COc1cc(OC)c(C2COc3cc(O)ccc3C2=O)cc1O (stereo not shown) [Compound 12, Dalparvin] | 117 ± 8.9 | 99.7 ± 6.7 | < 0 | 134 ± 9.7 | 200 ± 12.1 | inhibition at 200 µM (mushroom tyrosinase; 200 μM, L-DOPA substrate): 31.6 ± 0.5%
COc1ccc(C2COc3cc(O)ccc3C2=O)c(O)c1OC (stereo not shown) [Compound 13, Dalparvin B] | 82.3 ± 5.4 | 74.1 ± 6.4 |  | 102 ± 2.7 | 99.1 ± 2.3 | inhibition at 200 µM (murine tyrosinase; [8]): 9.8 ± 2.8%; inhibition at 500 µM (mushroom tyrosinase; L-DOPA substrate): 4%
COc1ccc([C@@H]2COc3cc(O)ccc3C2=O)cc1O [Compound 10, (3R)-7,3′-Dihydroxy-4′-methoxy-isoflavanone] | 94.9 ± 3.9 | 96.5 ± 3.9 | < 0 | 95.1 ± 3 | 95.2 ± 2.7 | inhibition at 200 µM (mushroom tyrosinase): 52.1 ± 0.4%
O=c1cc(CO)occ1O [Kojic acid, reference compound] | 98.9 ± 4.7 | 99.6 ± 2.3 |  | 68.9 ± 5.2 | 74.2 ± 5.8 | 
Oc1cc(O)cc(/C=C/c2ccc(O)cc2O)c1 [Oxyresveratrol, reference compound] |  |  |  | 24.3 ± 1.1 | 28.4 ± 1.7 | viability at 72 h, 15 µM ([1]; % Cell Viability): 117 ± 2.2%; viability at 72 h, 30 µM ([1]; % Cell Viability): 118 ± 5.1%; inhibition at 200 µM (mushroom tyrosinase): 98.4 ± 1.1%
O=C1C[C@@H](c2ccc(O)cc2)Oc2cc(O)ccc21 [Compound 24, (2S)-Liquiritigenin] | 98.9 ± 10.7 | 100 ± 3.5 |  | 103 ± 5.5 | 124 ± 2 | inhibition at 200 µM (murine tyrosinase; [8]): 13.2 ± 2.7%; inhibition at 200 µM (mushroom tyrosinase): 52.1 ± 1.4%
COc1ccc(-c2coc3cc(O)ccc3c2=O)cc1 [Compound 1, Formononetin] | 96 ± 3.3 | 92.8 ± 9.4 | < 0 | 134 ± 2.7 | 155 ± 15.4 | inhibition at 300 µM (mushroom tyrosinase; L-DOPA substrate): 10%; inhibitory activity on mushroom tyrosinase (in words) (mushroom tyrosinase; L-DOPA substrate): did not show inhibitory activity
COc1ccc(C2COc3c(ccc(O)c3OC)C2)c(OC)c1O (stereo not shown) [Compound 22, Duartin] | 140 ± 7.5 | 94.4 ± 2.8 | < 0 | 301.1 ± 2.3 | 326.8 ± 2.1 | inhibition at 500 µM (mushroom tyrosinase; L-DOPA substrate): 0%; increase in melanin content with respect to the control (B16-F10 melanoma cells): three-fold increase; effect on melanin content (in words, Figure 1) (B16-F10 melanoma cells; 30 μM): increased the melanin content
COc1cc(-c2coc3cc(O)cc(O)c3c2=O)ccc1O [Compound 6, 3′-O-Methylorobol] | 107 ± 6.2 | 102 ± 2.7 | < 0 | 170 ± 10.5 | 216 ± 15.7 | inhibition at 200 µM (mushroom tyrosinase; 200 μM, L-DOPA substrate): 14.3 ± 1.1%; inhibitory activity on mushroom tyrosinase (in words) (mushroom tyrosinase; L-DOPA substrate): did not show inhibitory activity
COc1ccc(C2COc3cc(O)ccc3C2=O)c(OC)c1OC [Compound 15, (3R,S)-3′-O-Methylviolanone] | 74.2 ± 7.8 | 72.9 ± 6.2 | < 0 | 143 ± 8.4 | 157 ± 11.5 | inhibition at 300 µM (mushroom tyrosinase; L-DOPA substrate): 0%
COc1ccc([C@H]2COc3c(ccc(O)c3O)C2)c(OC)c1O [Compound 23, (3S)-8-Demethylduartin] | 93.5 ± 3 | 98.3 ± 5.4 | < 0 | 87.8 ± 2 | 72.7 ± 4.3 | behaviour as substrate of mushroom tyrosinase (in words) (mushroom tyrosinase): chromogenic substrate analog
COc1cc(O)c2c(=O)c(-c3ccc(O)cc3O)coc2c1 [Compound 9, Cajanin] |  |  |  |  |  | viability at 72 h, 15 µM ([1]; 15 μM, 72 h, relative to control, read-out: % Cell Viability): 102 ± 6.6%; viability at 72 h, 30 µM ([1]; 30 μM, 72 h, relative to control, read-out: % Cell Viability): 107 ± 3.3%; inhibition at 200 µM (murine tyrosinase; read-out: Murine Tyrosinase Inhibition, % (at 200 μM)): 9.2 ± 1.5%; inhibition at 200 µM (mushroom tyrosinase): 65 ± 1.6%; effect on melanin content (in words, Figure 1) (B16-F10 melanoma cells; 30 μM): inhibitory effect of melanogenesis; activity at 15 µM (B16-F10 melanoma cells; Mus musculus, B16-F10, 72 h): 65.8 ± 7.5%; activity at 30 µM (B16-F10 melanoma cells; Mus musculus, B16-F10, 72 h): 61.6 ± 8.9%; inhibition at 15 µM (B16-F10 melanoma cells; Mus musculus, B16-F10, read-out: inhibition of melanogenesis): 34%
COc1ccc([C@H]2COc3cc(O)cc(O)c3C2=O)c(OC)c1O [Compound 17, (3S)-Secundiflorol H] | 109 ± 6.6 | 103 ± 4.1 | < 0 | 118 ± 17.7 | 146 ± 6.1 | inhibition at 200 µM (mushroom tyrosinase; 200 μM, L-DOPA substrate): 44 ± 3.7%
COc1ccc(C2COc3cc(O)cc(O)c3C2=O)cc1O [Compound 16, (3R,S)-Kenusanone G] | 124 ± 1.7 | 102 ± 2.8 | < 0 | 133 ± 5.1 | 158 ± 13.5 | inhibition at 500 µM (mushroom tyrosinase; L-DOPA substrate): 0%
